What was measured:
[1] = Aqueous solubility measurements; assay type: physicochemical; details: for Aqueous solubility: in water
From the text: Aqueous solubility measurements were done on L-Se-methylselenocysteine and γ-L-glutamyl-L-Se-methylselenocysteine; The solubility of L-Se-methylselenocysteine was ca. 10% with dissolution occurring in two hours in water.

SMILES	melting point	Time for dissolution in water [1]	Aqueous solubility [1]
C[Se]CC[C@H](NC(=O)CC[C@H](N)C(=O)O)C(=O)O	192 to 194 °C		
C[Se]C[C@H](N)C(=O)O [L-Se-methylselenocysteine, reference compound]		two hours	ca. 10%
C[Se]C[C@H](NC(=O)CC[C@H](N)C(=O)O)C(=O)O [γ-L-glutamyl-L-Se-methylselenocysteine, γ-L-glutamyl-Se-methyl-L-selenocysteine]	159 to 161 °C	thirty minutes	ca. 25%

— patent publication US8193156B1, “Dipeptides incorporating selenoamino acids with enhanced bioavailability—synthesis, pharmaceutical and cosmeceutical applications thereof” (Sami Labs Ltd, priority 2006, dated 2012)
